Source: PubChem BioAssay (NCI)
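How tested: cells in 96-well plates exposed to compound for 48 hours at five concentrations. TGI: total growth inhibition.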

How the values were obtained:
Test in all cases: growth of human tumour cells (NCI), 48 h
U251 CNS = system: U251 CNS
HL-60(TB) leukemia = system: HL-60(TB) leukemia
MCF7 breast = system: MCF7 breast
HCT-116 colon = system: HCT-116 colon
OVCAR-4 ovarian = system: OVCAR-4 ovarian
786-0 renal = system: 786-0 renal
T-47D breast = system: T-47D breast
HOP-92 NSCLC = system: HOP-92 NSCLC
HS 578T breast = system: HS 578T breast
MDA-N = system: MDA-N
COLO 205 colon = system: COLO 205 colon
MOLT-4 leukemia = system: MOLT-4 leukemia
RXF 393 renal = system: RXF 393 renal
CCRF-CEM leukemia = system: CCRF-CEM leukemia
SN12C renal = system: SN12C renal
UACC-62 melanoma = system: UACC-62 melanoma
SK-MEL-5 melanoma = system: SK-MEL-5 melanoma
SF-268 CNS = system: SF-268 CNS
HCT-15 colon = system: HCT-15 colon
SW-620 colon = system: SW-620 colon
NCI/ADR-RES ovarian = system: NCI/ADR-RES ovarian
SF-539 CNS = system: SF-539 CNS
KM12 colon = system: KM12 colon
NCI-H460 lung = system: NCI-H460 lung
A549 NSCLC = system: A549 NSCLC
K-562 leukemia = system: K-562 leukemia
LOX IMVI melanoma = system: LOX IMVI melanoma
SNB-19 CNS = system: SNB-19 CNS
MDA-MB-231 breast = system: MDA-MB-231 breast
TK-10 renal = system: TK-10 renal
RPMI-8226 leukemia = system: RPMI-8226 leukemia
HT29 colon = system: HT29 colon
M14 melanoma = system: M14 melanoma
PC-3 prostate = system: PC-3 prostate
BT-549 breast = system: BT-549 breast
MDA-MB-435 = system: MDA-MB-435
A498 renal = system: A498 renal
HCC-2998 colon = system: HCC-2998 colon
SR leukemia = system: SR leukemia
NCI-H23 lung = system: NCI-H23 lung
UO-31 renal = system: UO-31 renal
HOP-62 NSCLC = system: HOP-62 NSCLC
IGROV1 ovarian = system: IGROV1 ovarian
SNB-75 CNS = system: SNB-75 CNS
EKVX NSCLC = system: EKVX NSCLC
ACHN renal = system: ACHN renal
SK-OV-3 ovarian = system: SK-OV-3 ovarian
OVCAR-8 ovarian = system: OVCAR-8 ovarian
SF-295 CNS = system: SF-295 CNS
OVCAR-3 ovarian = system: OVCAR-3 ovarian
OVCAR-5 ovarian = system: OVCAR-5 ovarian
DU-145 prostate = system: DU-145 prostate
CAKI-1 renal = system: CAKI-1 renal
NCI-H226 lung = system: NCI-H226 lung
SK-MEL-2 melanoma = system: SK-MEL-2 melanoma
UACC-257 melanoma = system: UACC-257 melanoma
NCI-H522 lung = system: NCI-H522 lung

**Q.** Which results are given for `CCCCOC(=O)NC(c1ccccc1)C(O)C(=O)OC1C[C@@]2(O)C(OC(=O)c3ccccc3)C3[C@](C)(C(=O)[C@H](OC(C)=O)C(=C1C)C2(C)C)[C@@H](O)C[C@H]1OC[C@@]31OC(C)=O` (stereo partly drawn)?
**A.** TGI (U251 CNS): > 10 µM; TGI (HL-60(TB) leukemia): 0.00741 µM; TGI (MCF7 breast): > 10 µM; TGI (HCT-116 colon): > 10 µM; TGI (OVCAR-4 ovarian): > 10 µM; TGI (786-0 renal): > 10 µM; TGI (T-47D breast): > 10 µM; TGI (HOP-92 NSCLC): > 10 µM; TGI (HS 578T breast): 0.0469 µM; TGI (MDA-N): 0.0113 µM; TGI (COLO 205 colon): > 10 µM; TGI (MOLT-4 leukemia): > 9.14 µM; TGI (RXF 393 renal): 0.0755 µM; TGI (CCRF-CEM leukemia): > 10 µM; TGI (SN12C renal): > 10 µM; TGI (UACC-62 melanoma): > 10 µM; TGI (SK-MEL-5 melanoma): > 10 µM; TGI (SF-268 CNS): > 10 µM; TGI (HCT-15 colon): > 10 µM; TGI (SW-620 colon): > 10 µM; TGI (NCI/ADR-RES ovarian): > 6.5 µM; TGI (SF-539 CNS): 0.0175 µM; TGI (KM12 colon): > 10 µM; TGI (NCI-H460 lung): > 10 µM; TGI (A549 NSCLC): > 10 µM; TGI (K-562 leukemia): > 10 µM; TGI (LOX IMVI melanoma): > 10 µM; TGI (SNB-19 CNS): > 10 µM; TGI (MDA-MB-231 breast): > 10 µM; TGI (TK-10 renal): > 10 µM; TGI (RPMI-8226 leukemia): > 7.96 µM; TGI (HT29 colon): 6.81 µM; TGI (M14 melanoma): > 10 µM; TGI (PC-3 prostate): > 10 µM; TGI (BT-549 breast): > 10 µM; TGI (MDA-MB-435): 0.0241 µM; TGI (A498 renal): 0.0663 µM; TGI (HCC-2998 colon): 0.595 µM; TGI (SR leukemia): > 10 µM; TGI (NCI-H23 lung): > 10 µM; TGI (UO-31 renal): > 10 µM; TGI (HOP-62 NSCLC): > 10 µM; TGI (IGROV1 ovarian): > 10 µM; TGI (SNB-75 CNS): > 10 µM; TGI (EKVX NSCLC): > 10 µM; TGI (ACHN renal): > 10 µM; TGI (SK-OV-3 ovarian): > 10 µM; TGI (OVCAR-8 ovarian): > 10 µM; TGI (SF-295 CNS): > 10 µM; TGI (OVCAR-3 ovarian): > 6.88 µM; TGI (OVCAR-5 ovarian): > 10 µM

**Q.** For `COc1cc2c(c(OC)c1OC)-c1ccc(SC)c(=O)cc1[C@@H](OC(=O)c1ccncc1)CC2`, which TGI (U251 CNS) is on record?
**A.** > 100 µM

**Q.** And the TGI (HL-60(TB) leukemia)?
**A.** > 100 µM

**Q.** What about the TGI (MCF7 breast) of the same molecule?
**A.** > 100 µM

**Q.** And the TGI (HCT-116 colon)?
**A.** > 35 µM

**Q.** What about the TGI (OVCAR-4 ovarian) of the same molecule?
**A.** > 100 µM

**Q.** What about the TGI (786-0 renal) of the same molecule?
**A.** > 40.3 µM

**Q.** What about the TGI (DU-145 prostate) of the same molecule?
**A.** > 62.7 µM

**Q.** What about the TGI (T-47D breast) of the same molecule?
**A.** > 100 µM

**Q.** And the TGI (HOP-92 NSCLC)?
**A.** > 100 µM

**Q.** And the TGI (HS 578T breast)?
**A.** > 56.5 µM

**Q.** And the TGI (MDA-N)?
**A.** > 100 µM

**Q.** And the TGI (COLO 205 colon)?
**A.** > 100 µM

**Q.** What about the TGI (MOLT-4 leukemia) of the same molecule?
**A.** > 100 µM

**Q.** And the TGI (RXF 393 renal)?
**A.** > 82.9 µM

**Q.** What about the TGI (CCRF-CEM leukemia) of the same molecule?
**A.** 46.8 µM

**Q.** And the TGI (CAKI-1 renal)?
**A.** 23.2 µM

**Q.** What about the TGI (UACC-62 melanoma) of the same molecule?
**A.** > 32.1 µM

**Q.** What about the TGI (SK-MEL-5 melanoma) of the same molecule?
**A.** 15.4 µM

**Q.** What about the TGI (SF-268 CNS) of the same molecule?
**A.** 49.3 µM

**Q.** And the TGI (SW-620 colon)?
**A.** > 100 µM

**Q.** What about the TGI (NCI/ADR-RES ovarian) of the same molecule?
**A.** < 0.01 µM

**Q.** And the TGI (SF-539 CNS)?
**A.** < 0.01 µM

**Q.** And the TGI (NCI-H460 lung)?
**A.** 11.2 µM

**Q.** And the TGI (A549 NSCLC)?
**A.** > 100 µM

**Q.** And the TGI (K-562 leukemia)?
**A.** > 100 µM

**Q.** And the TGI (LOX IMVI melanoma)?
**A.** > 35.7 µM

**Q.** What about the TGI (SNB-19 CNS) of the same molecule?
**A.** > 100 µM

**Q.** And the TGI (MDA-MB-231 breast)?
**A.** > 100 µM

**Q.** And the TGI (TK-10 renal)?
**A.** 55.3 µM

**Q.** What about the TGI (NCI-H226 lung) of the same molecule?
**A.** < 0.01 µM

**Q.** And the TGI (HT29 colon)?
**A.** < 0.01 µM

**Q.** What about the TGI (M14 melanoma) of the same molecule?
**A.** 56.7 µM

**Q.** What about the TGI (PC-3 prostate) of the same molecule?
**A.** > 100 µM

**Q.** And the TGI (BT-549 breast)?
**A.** 22.8 µM

**Q.** What about the TGI (SK-MEL-2 melanoma) of the same molecule?
**A.** > 100 µM

**Q.** What about the TGI (A498 renal) of the same molecule?
**A.** 21.4 µM

**Q.** And the TGI (HCC-2998 colon)?
**A.** 11.6 µM

**Q.** What about the TGI (SR leukemia) of the same molecule?
**A.** > 39.1 µM

**Q.** And the TGI (UACC-257 melanoma)?
**A.** 24 µM

**Q.** And the TGI (NCI-H23 lung)?
**A.** > 100 µM

**Q.** And the TGI (UO-31 renal)?
**A.** 52.6 µM

**Q.** What about the TGI (HOP-62 NSCLC) of the same molecule?
**A.** > 100 µM

**Q.** What about the TGI (NCI-H522 lung) of the same molecule?
**A.** 39.5 µM

**Q.** What about the TGI (IGROV1 ovarian) of the same molecule?
**A.** > 46.8 µM

**Q.** And the TGI (SNB-75 CNS)?
**A.** > 100 µM

**Q.** And the TGI (EKVX NSCLC)?
**A.** > 100 µM

**Q.** And the TGI (ACHN renal)?
**A.** 31.2 µM

**Q.** What about the TGI (SK-OV-3 ovarian) of the same molecule?
**A.** 43.7 µM

**Q.** What about the TGI (OVCAR-8 ovarian) of the same molecule?
**A.** > 100 µM

**Q.** What about the TGI (SF-295 CNS) of the same molecule?
**A.** < 0.01 µM

**Q.** And the TGI (OVCAR-3 ovarian)?
**A.** 21.9 µM

**Q.** And the TGI (OVCAR-5 ovarian)?
**A.** > 100 µM
